From patent EP0006752A1, “Compositions for the treatment of chronic trypanosomiasis infections” (Merck & Co., Inc., priority 1978, dated 1980)
“And” between values parts separate entries of the source, which are not always exact repeats. Equal entries are not always repeated.

How the values were obtained:
[1] = system: T. brucei LUMP 1001; assay: Chronic (21 day old) T. brucei LUMP 1001 infection in mice, cure/relapse after i.p. treatment; type: in vivo, Trypanosoma brucei
Excerpt: The mice used were adult CFLP females approximately 25-30 g. and maintained on standard laboratory diet throughout the experiments. Two stabilates were used throughout the experiments, the main one was T. brucei TREU 667/1 originally obtained from Dr. A. R. Gray, Edinburgh, and the other T. brucei LUMP 1001 obtained from Professor […], London. These were cryogenically maintained as previously described in Jennings, […], Parasitol. 75, 143-153 (1977). Each mouse was inoculated intraperitoneally with 1 x 10^4 trypanosomes prepared from the stabilate in phosphate glucose saline pH 8.0. Chemotherapy commenced at various times post inoculation. Each mouse was weighed and the requisite dose of drug administered intraperitoneally in a volume of 0.1 ml./5g. body weight. Compounds I, II and III were used in crystalline powder forms. These were first ground finely in an agate mortar and then suspended in physiological saline for intraperitoneal injection. A drop of detergent (Tween 80) was added to the suspensions to facilitate wetting. Care was taken during dispensing that the suspensions were properly dispersed, and because of some slight unavoidable settlement in the syringe, the mice were always injected at random and usually not more than 3 mice were injected from the one syringe full of drug suspension. As the regimen was usually 4 daily doses at the respective drug concentration, any errors were evenly distributed. […] All were prepared according to the manufacturer's instructions and were injected intraperitoneally. The mice were examined for parasites on the day treatment was initiated (usually day 3 or 21 of infection) by examination of a drop of tail blood under x40 objective (wet film technique). […] It was known that T. brucei LUMP 1001 relapsed after treatment of a 21 day old infection Jennings, […], Parasitol. 75, 143-153 (1977), and indeed tended to relapse earlier after treatment with Berenil at 40 mg./kg. than any of the other stabilates tested (approximately 20 days). The original experiment using 40 mg./kg. Berenil as pre-treatment followed by Compound III was disappointing, as only 3 out of a total of 27 mice appeared to be cured by the various dose regimens. The experiment was therefore repeated increasing the pretreatment dose of Berenil to 60 mg./kg. and 80 mg./kg., the latter being given as two doses of 40 mg./kg. on consecutive days to avoid the possibility of deaths due to the toxicity of Berenil at that dose level in mice. This pretreatment was followed by administration of Compound III at 4 doses of 80 mg./kg. and in both instances where the increased Berenil dose level (60 mg./kg. and 80 mg./kg.) was used, satisfactory permanent cures were accomplished, whereas in the respective controls all of the mice relapsed.

[2] = system: T. brucei LUMP 1001; conditions: 21 day old infection; Berenil at 40 mg./kg.; cited from earlier work
[3] = system: T. brucei TREU 667/1; assay: Chronic (21 day old) T. brucei TREU 667/1 infection in mice, cure/relapse after i.p. treatment; type: in vivo, Trypanosoma brucei; conditions: for Number Cured Out of Total Treated: mice infected for 21 days; for time after treatment until signs of relapse: some of the mice treated with the prophylactic drugs (pretreatment experiments of Table 3)
Excerpt: The mice used were adult CFLP females approximately 25-30 g. and maintained on standard laboratory diet throughout the experiments.
Two stabilates were used throughout the experiments, the main one was T. brucei TREU 667/1 originally obtained from Dr. A. R. Gray, Edinburgh, and the other T. brucei LUMP 1001 obtained from Professor W. H. R. Lumsden, London. These were cryogenically maintained as previously described in Jennings, Whitelaw & Urquhart, Parasitol. 75, 143-153 (1977).
Each mouse was inoculated intraperitoneally with 1 x 10^4 trypanosomes prepared from the stabilate in phosphate glucose saline pH 8.0. Chemotherapy commenced at various times post inoculation. Each mouse was weighed and the requisite dose of drug administered intraperitoneally in a volume of 0.1 ml./5g. body weight.
Compounds I, II and III were used in crystalline powder forms. These were first ground finely in an agate mortar and then suspended in physiological saline for intraperitoneal injection. A drop of detergent (Tween 80) was added to the suspensions to facilitate wetting. Care was taken during dispensing that the suspensions were properly dispersed, and because of some slight unavoidable settlement in the syringe, the mice were always injected at random and usually not more than 3 mice were injected from the one syringe full of drug suspension. As the regimen was usually 4 daily doses at the respective drug concentration, any errors were evenly distributed.
The other established drugs used were Berenil (diminazene aceturate, obtained from Fabwerke, Hoechst, Germany, 40 mg./kg. unless otherwise specified), Ethidium (homidium bromide 7.5 mg./kg.) and Prothidium (pyrithidium bromide 10 mg./kg. obtained from Boots Pure Drug Co., England) and Samorin (isometamidium 2 mg./kg. obtained from May & Baker Ltd.). […]
The mice were examined for parasites on the day treatment was initiated (usually day 3 or 21 of infection) by examination of a drop of tail blood under x40 objective (wet film technique). Subsequent to treatment they were examined every 2 days for 6 days and thereafter once per week until relapse occurred or until the experiment was terminated (in some instances 6-7 months).
The initial work with Berenil was carried out using the dose rate of 40 mg./kg. which was the dose of drug used in all the original work on chronic infections.
In addition, groups of mice were given Berenil and the Compound III simultaneously, or one injection of Berenil followed by one injection of Compound III in order to compress the treatment into the minimum number of injections.

[4] = system: T. brucei TREU 667/1; assay: Early (3 day old) T. brucei TREU 667/1 infection in mice, cure after i.p. treatment; type: in vivo, Trypanosoma brucei; conditions: for Number Cured Out of Total Treated: CFLP mice infected for 3 days
Excerpt: The mice used were adult CFLP females approximately 25-30 g. and maintained on standard laboratory diet throughout the experiments. Two stabilates were used throughout the experiments, the main one was T. brucei TREU 667/1 originally obtained from Dr. A. R. Gray, Edinburgh, and the other T. brucei LUMP 1001 obtained from Professor […], London. These were cryogenically maintained as previously described in Jennings, […], Parasitol. 75, 143-153 (1977). Each mouse was inoculated intraperitoneally with 1 x 10^4 trypanosomes prepared from the stabilate in phosphate glucose saline pH 8.0. Chemotherapy commenced at various times post inoculation. Each mouse was weighed and the requisite dose of drug administered intraperitoneally in a volume of 0.1 ml./5g. body weight. Compounds I, II and III were used in crystalline powder forms. These were first ground finely in an agate mortar and then suspended in physiological saline for intraperitoneal injection. A drop of detergent (Tween 80) was added to the suspensions to facilitate wetting. Care was taken during dispensing that the suspensions were properly dispersed, and because of some slight unavoidable settlement in the syringe, the mice were always injected at random and usually not more than 3 mice were injected from the one syringe full of drug suspension. As the regimen was usually 4 daily doses at the respective drug concentration, any errors were evenly distributed. […] All were prepared according to the manufacturer's instructions and were injected intraperitoneally. The mice were examined for parasites on the day treatment was initiated (usually day 3 or 21 of infection) by examination of a drop of tail blood under x40 objective (wet film technique). […] The three compounds, I, II and III were used at various dose levels against an early infection of T. brucei TREU 667/1 in CFLP. The dose regimen was initiated 3 days after infection and the intraperitoneal injections of drug suspension were given daily.

[5] = Berenil 40 mg./kg. day 21, no further treatment
[6] = 4 x 5 mg./kg. daily i.p., cure = no parasites in blood for at least 90 days
[7] = 4 x 20 mg./kg. daily i.p., cure = no parasites in blood for at least 90 days
[8] = single drug 4 x 20 mg./kg. daily i.p.

For `N=C(N)c1ccc(N=NNc2ccc(C(=N)N)cc2)cc1` [Berenil, diminazene aceturate], the “No. Cured Out of Total Treated” value [1, 5] was 0/10 and 0/9, the “No. Cured Out of Total Treated” value ([1]; Berenil 60 mg./kg. day 21, no further treatment) was 0/8 and the “No. Cured Out of Total Treated” value ([1]; Berenil 80 mg./kg., given as 2 x 40 mg./kg. on day 21 and day 24, no further treatment) was 0/8. The “time to relapse after treatment” value [2] was “approximately 20 days”, the “time for which all circulating trypanosomes are cleared from the bloodstream” value ([3]; 5 mg./kg. Berenil) was “up to 20 days” and the “outcome after treatment” value ([3]; 21 day old infection, 160 mg./kg. Berenil given subcutaneously) was “relapsed”. The “No. Cured Out of Total Treated” value ([3]; Berenil 5 mg./kg. day 21, no further treatment) was 0/10, the “No. Cured Out of Total Treated” value ([3]; Berenil 5 mg./kg. day 21, then Berenil 5 mg./kg. day 24) was 0/10 and the “No. Cured Out of Total Treated” value ([3]; Berenil 20 mg./kg. day 21, no further treatment) was 0/10. For the same compound, the “No. Cured Out of Total Treated” value [3, 5] was 1/10 and 1/9, the cure rate ([3]; Berenil (40 mg./kg.) given alone, in the particular experiment with the simultaneous group) was 60% and the “outcome after repeated treatment” value ([3]; infected 21 days, Berenil alone 40 mg./kg., retreated every 30 days for a total of 5 months, a proportion of mice) was “eventually become parasitaemic again”. The “permanent cure of early infections” value ([4]; early infection, Berenil 5 mg./kg.) was “can be permanently cured”.
With `Cn1c([N+](=O)[O-])cnc1COC(N)=O` [Compound I, 1-methyl-5-nitroimidazol-2-ylmethylcarbamate] the “Number Cured Out of Total Treated” value [4, 6] was 0/8 and the “Number Cured Out of Total Treated” value [4, 7] was 0/8.
For `Cn1c([N+](=O)[O-])cnc1C1=NOC2CCCCC12` (stereo not drawn) [Compound II, 3'-(1-methyl-5-nitroimidazol-2-yl)-4'5'-tetramethylene-Δ^2-isoxazoline], the “Number Cured Out of Total Treated” value [3, 8] was 0/9, the cure rate ([4]; 3-day old infection, 4 doses of 80 mg./kg.) was 100% and the “Number Cured Out of Total Treated” value [4, 6] was 0/8. The “Number Cured Out of Total Treated” value [4, 7] was 2/8 and the “Number Cured Out of Total Treated” value ([4]; 4 x 80 mg./kg. daily i.p., separate experiment) was 10/10.
For `Cn1c([N+](=O)[O-])cnc1C1=NOC2CCCCCCC12` (stereo not drawn) [Compound III], the “No. Cured Out of Total Treated” value ([1]; no pretreatment, III 4 x 80 mg./kg. commencing day 24) was 0/10, the “period after treatment until the last of the mice relapsed” value ([3]; established (21 day) infection, 4 doses at 80 mg./kg.) was 42 days and the “Number Cured Out of Total Treated” value [3, 8] was 0/9 and 0/10 and 0/8. The “Number Cured Out of Total Treated” value ([3]; single drug 4 x 80 mg./kg. daily i.p.) was 0/10, the “No. Cured Out of Total Treated” value ([3]; no pretreatment, III 4 x 20 mg./kg. commencing day 24) was 0/8 and the cure ([4]; 3-day old infection, 4 doses at 20 mg./kg.) was 100%. The “Number Cured Out of Total Treated” value [4, 6] was 2/8 and the “Number Cured Out of Total Treated” value [4, 7] was 8/8.
For `CC[n+]1c(-c2ccccc2)c2cc(N)ccc2c2ccc(N)cc21` [Ethidium, homidium bromide], the “No. Cured Out of Total Treated” value ([3]; Ethidium 7.5 mg./kg. day 21, no further treatment) was 0/10.
For `Cc1cc(Nc2ccc3c(c2)c(-c2ccc(N)cc2)[n+](C)c2cc(N)ccc32)nc(N)[n+]1C.[Br-].[Br-]` [Prothidium, pyrithidium bromide], the “No. Cured Out of Total Treated” value ([3]; Prothidium 10.0 mg./kg. day 21, no further treatment) was 0/8 and the “time after treatment until signs of relapse” value [3] was 6-7 months.
With `CC[n+]1c(-c2ccccc2)c2cc(N/N=N/c3cccc(C(=N)N)c3)ccc2c2ccc(N)cc21` [Samorin, isometamidium] the “No. Cured Out of Total Treated” value ([3]; Samorin 2.0 mg./kg. day 21, no further treatment) was 0/10 and the “time after treatment until signs of relapse” value [3] was 6-7 months.
